# Experimental data taken from article PMC6268061, “Investigation of the Biological Properties of (Hetero)Aromatic Thiosemicarbazones” (Molecules, 2012).
# Like-named read-outs stand apart in the source and are kept apart here.
# Key:
# [1] = test system: Trichosporon beigelii 1188; assay: In vitro antifungal susceptibility, broth microdilution; format: cell-based; conditions: read-out: MIC (IC80) TB
# From the text: The broth microdilution test was used for the assessment of the in vitro antifungal activity of the synthesized compounds against Candida albicans ATCC 44859 (CA), Candida tropicalis 156 (CT), Candida krusei ATCC 6258 (CK), Candida glabrata 20/I (CG), Trichosporon beigelii 1188 (TB), Aspergillus fumigatus 231 (AF), Absidia corymbifera 272 (AC), and Trichophyton mentagrophytes 445 (TM). Fluconazole (FLU) was used as the standard since it is a clinically used antimycotic drug. The procedure was performed using a twofold dilution of the compounds in RPMI 1640 (Sevapharma a.s., Prague, Czech Republic) buffered to pH 7.0 with […] of 3-morpholino-propane-1-sulfonic acid (MOPS, Sigma, Prague, Czech Republic). The final concentrations of the compounds ranged from 500 to 0.975 μmol/L. Drug-free controls were included. The determination of minimum inhibitory concentration (MIC) was performed according to the Clinical and Laboratory Standards Institute (CLSI, formerly NCCLS) reference protocol M27-A2 for yeasts (IC80 value) and M38-A for moulds (IC50 value). IC80 and IC50 were defined as an 80% resp. 50% or greater reduction in growth in comparison with the control. The values of MICs were determined after 24 and 48 h of static incubation at 35 °C. The final MICs for T. mentagrophytes, were determined after 72 and 120 h of incubation.
# Absidia corymbifera 272 = assay: as above; format: cell-based; conditions: read-out: MIC (IC50) AC
# Candida tropicalis 156 = assay: as above; format: cell-based; conditions: read-out: MIC (IC80) CT
# [2] = test system: Trichophyton mentagrophytes 445; assay: as above; format: cell-based; conditions: read-out: MIC (IC50) TM
# [3] = test system: HCT-116 human colon cancer cells (p53 wild type); set-up: method as in PMID 22858101; conditions: footnote 3: anticancer activity described elsewhere ref [34],[44]; cited from earlier work
# [4] = Lipophilicity determination using RP-HPLC (capacity factor, log k); format: physicochemical; conditions: C18, MeOH 55%/H2O 45%
# From the text: Reversed phase high performance liquid chromatography (RP-HPLC) methods have become popular and are widely used for lipophilicity measurements. The general procedure is the measurement of the directly accessible retention time under isocratic conditions using varying amounts of methanol as an organic modifier in the mobile phase using RP columns and calculating the logarithm of the capacity factors (log k). Log k is the logarithm of the capacity factors in chromatographic approaches that is related to the partitioning of a compound between a mobile and a (pseudo-)stationary phase. Log k is used as the lipophilicity index converted to log P scale.
# A Waters Alliance 2695 XE HPLC separation module and a Waters Photodiode Array Detector 2996 (Waters Corp., Milford, MA, USA) were used. A Symmetry® C18 5 μm, 4.6 × 250 mm, Part No. WAT054275 (Waters Corp.) chromatographic column was used. The HPLC separation process was monitored using Empower™ 2 Chromatography Data Software, Waters 2009 (Waters Corp.). A mixture of MeOH p.a. (55%) and H2O-HPLC-Mili-Q Grade (45%) was used as a mobile phase. The total flow of the column was 0.9 mL/min, injection volume 30 μL, column temperature 30 °C and sample temperature 10 °C. A detection wavelength of 210 nm was chosen. A KI methanolic solution was used for the determination of dead time (tD). Retention times (tR) were measured in minutes. The capacity factors k were calculated using the Empower™ 2 Chromatography Data Software according to the formula k = (tR − tD)/tD, where tR is the retention time of the solute, whereas tD denotes the dead time obtained using an unretained analyte. Log k, calculated from the capacity factor k, is used as the lipophilicity index converted to log P scale.
# [5] = test system: Aspergillus fumigatus 231; assay: In vitro antifungal susceptibility, broth microdilution; format: cell-based; conditions: read-out: MIC (IC50) AF
# Candida glabrata 20/I = assay: as above; format: cell-based; conditions: Nakaseomyces glabratus, read-out: MIC (IC80) CG
# Candida krusei ATCC 6258 = assay: as above; format: cell-based; conditions: Pichia kudriavzevii, read-out: MIC (IC80) CK
# [6] = test system: Candida albicans ATCC 44859; assay: as above; format: cell-based; conditions: read-out: MIC (IC80) CA
# [7] = test system: photosynthetic electron transport (PET) in spinach chloroplasts; assay: Inhibition of photosynthetic electron transport (PET) in spinach chloroplasts; format: biochemical, Spinacia oleracea L.; conditions: DCPIP photoreduction
# Procedure: Chloroplasts were prepared from spinach (Spinacia oleracea L.) according to Masarovicova and Kralova. The inhibition of the photosynthetic electron transport (PET) in spinach chloroplasts was determined spectrophotometrically (Genesys 6, Thermo Fisher Scientific, Waltham, MA, USA) using an artificial electron acceptor 2,6-dichlorophenol-indophenol (DCIPP) according to Kralova et al. and the rate of photosynthetic electron transport was monitored as a photoreduction of DCPIP. The measurements were carried out in a phosphate buffer (0.02 mol/L, pH 7.2) containing sucrose (0.4 mol/L), MgCl2 (0.005 mol/L) and NaCl (0.015 mol/L). The chlorophyll content was 30 mg/L in these experiments and the samples were irradiated (~100 W/m^2 with 10 cm distance) with a halogen lamp (250 W) using a 4 cm water filter to prevent warming of the samples (suspension temperature 22 °C). The compounds studied were dissolved in DMSO due to their limited water solubility. […] The inhibitory efficiency of the compounds studied was expressed by IC50 values, i.e., by the molar concentration of the compounds that caused a 50% decrease in the oxygen evolution rate relative to the untreated control.
# [8] = Trichosporon beigelii, 1188, 24 h and 48 h, only one value presented (inactive)
# [9] = Lichtheimia corymbifera, 272, 24 h and 48 h, only one value presented (inactive)
# [10] = Candida tropicalis, 156, 24 h and 48 h, only one value presented (inactive)
# [11] = Trichophyton mentagrophytes, 445, 72 h and 120 h, only one value presented (inactive)
# [12] = Aspergillus fumigatus, 231, 24 h and 48 h, only one value presented (inactive)
# [13] = 24 h and 48 h, only one value presented (inactive)
# [14] = ATCC6258, 24 h and 48 h, only one value presented (inactive)
# [15] = ATCC44859, 24 h and 48 h, only one value presented (inactive)
# [16] = Trichosporon beigelii, 1188, 24 h
# [17] = Trichosporon beigelii, 1188, 48 h
# [18] = Lichtheimia corymbifera, 272, 24 h
# [19] = Lichtheimia corymbifera, 272, 48 h
# [20] = Trichophyton mentagrophytes, 445, 72 h
# [21] = Trichophyton mentagrophytes, 445, 120 h
# [22] = Aspergillus fumigatus, 231, 24 h
# [23] = Aspergillus fumigatus, 231, 48 h
Structure (SMILES),IC50 [3],log k [4],"MIC [1, 16]","MIC [1, 17]",IC50 (Absidia corymbifera 272; [18]),IC50 (Absidia corymbifera 272; [19]),"MIC (Candida tropicalis 156; Candida tropicalis, 156, 24 h)","MIC (Candida tropicalis 156; Candida tropicalis, 156, 48 h)","IC50 [2, 20]","IC50 [2, 21]","IC50 [5, 22]","IC50 [5, 23]",MIC (Candida glabrata 20/I; 24 h),MIC (Candida glabrata 20/I; 48 h),"MIC (Candida krusei ATCC 6258; ATCC6258, 24 h)","MIC (Candida krusei ATCC 6258; ATCC6258, 48 h)","MIC ([6]; ATCC44859, 24 h)","MIC ([6]; ATCC44859, 48 h)",other results
"CCNC(=S)N/N=C/c1cccc(Cl)c1Cl [Compound 3d, (E)-2-(2,3-Dichlorobenzylidene)-N-ethylhydrazinecarbothioamide]",58.5 ± 0.2 µM,0.7958,–,–,–,–,–,–,–,–,–,–,–,–,–,–,–,–,"MIC [1, 8]: > 500 µM; IC50 (Absidia corymbifera 272; [9]): > 500 µM; MIC (Candida tropicalis 156; [10]): > 500 µM; IC50 [2, 11]: > 500 µM; IC50 [5, 12]: > 500 µM; MIC (Candida glabrata 20/I; [13]): > 500 µM; MIC (Candida krusei ATCC 6258; [14]): > 500 µM; MIC [6, 15]: > 500 µM"
"CCNC(=S)N/N=C/c1ccc(Br)cc1 [Compound 3n, (E)-2-(4-Bromobenzylidene)-N-ethylhydrazinecarbothioamide]",> 60 µM,0.7568,–,–,–,–,–,–,–,–,–,–,–,–,–,–,–,–,"MIC [1, 8]: > 500 µM; IC50 (Absidia corymbifera 272; [9]): > 500 µM; MIC (Candida tropicalis 156; [10]): > 500 µM; IC50 [2, 11]: > 500 µM; IC50 [5, 12]: > 500 µM; MIC (Candida glabrata 20/I; [13]): > 500 µM; MIC (Candida krusei ATCC 6258; [14]): > 500 µM; MIC [6, 15]: > 500 µM"
"CN(C)C(=S)NN/C=C/c1ccc2ccccc2n1 [Compound 4b, (E)-2-(Quinolin-2-ylvinyl)-N,N-dimethylhydrazinecarbothioamide]",4.86 ± 1.48 µM,0.6184,1.95 µM,1.95 µM,3.9 µM,3.9 µM,1.95 µM,7.81 µM,3.9 µM,3.9 µM,3.9 µM,3.9 µM,1.95 µM,1.95 µM,3.9 µM,3.9 µM,1.95 µM,1.95 µM,IC50 [7]: 1370 µM
Oc1cccc2ccc(C=NNC(=S)Nc3ccccc3)nc12 [Compound 4h],25 ± 4.29 µM,0.7548,> 125 µM,> 125 µM,> 125 µM,> 125 µM,> 125 µM,> 125 µM,> 125 µM,> 125 µM,> 125 µM,> 125 µM,> 125 µM,> 125 µM,> 125 µM,> 125 µM,> 125 µM,> 125 µM,–
CNC(=S)NN=Cc1c(O)ccc2cccnc12 [Compound 4i],> 25 µM,0.6193,> 500 µM,> 500 µM,> 500 µM,> 500 µM,> 500 µM,> 500 µM,> 500 µM,> 500 µM,> 500 µM,> 500 µM,> 500 µM,> 500 µM,> 500 µM,> 500 µM,> 500 µM,> 500 µM,–
CCNC(=S)NN=Cc1c(O)ccc2cccnc12 [Compound 4k],> 25 µM,0.6539,> 500 µM,> 500 µM,> 500 µM,> 500 µM,> 500 µM,> 500 µM,62.5 µM,62.5 µM,> 500 µM,> 500 µM,62.5 µM,500 µM,> 500 µM,> 500 µM,> 500 µM,> 500 µM,–
Oc1ccc2cccnc2c1C=NNC(=S)Nc1ccccc1 [Compound 4l],16.3 ± 1.69 µM,0.6748,15.6 µM,125 µM,15.6 µM,62.5 µM,125 µM,125 µM,15.6 µM,15.6 µM,125 µM,125 µM,15.6 µM,31.2 µM,31.2 µM,125 µM,31.2 µM,62.5 µM,–
